The values below come from US20250213543A1, “AN EMBRYONIC ECTODERM DEVELOPMENT INHIBITOR FOR THE TREATMENT OF SICKLE CELL DISEASE” (Fulcrum Therapeutics, Inc., priority 2022, published 2025).

Common to all, as to format: in vivo, human
A short description of data set [1]: Phase 1 SAD/MAD clinical study in healthy volunteers: safety and tolerability. From the text: (§1) This is a study of the safety, tolerability, pharmacokinetics (PK) and pharmacodynamics (PD) of Compound 1 from a Phase 1, single ascending dose (SAD) and multiple ascending dose (MAD) clinical study.
(§2) Healthy volunteers received oral placebo vs. single oral doses of Compound 1 in the SAD cohorts, or oral placebo vs. single oral doses of Compound 1 once daily (QD) for 14 consecutive days in the MAD cohorts. Safety assessments included AEs, vital signs, ECGs, and laboratory parameters. PK/PD blood sampling was performed pre-dose and Days 1 and 2 in the SAD cohorts, and Days 1, 2, 7, 8 and 12-15 in the MAD cohorts. Target engagement was assessed as change from baseline in H3K27me3/Total Histone H3 ratio. PD assessments included changes in F reticulocytes and HBG mRNA.
(§3) Compound 1 was evaluated in […] healthy volunteer (HV) SAD cohorts (2 to 60 mg), […] HV MAD cohorts (2 to 30 mg QD, 14-day dosing). SAD dose cohorts include 2 mg, 4 mg, 6 mg, 10 mg, 20 mg, 30 mg, 40 mg, and 60 mg Compound 1. MAD dose cohorts include 2 mg, 4 mg, 6 mg, 10 mg, 20 mg, and 30 mg Compound 1.

Data set [2] in a line: Phase 1 SAD/MAD clinical study in healthy volunteers: pharmacokinetics. To be noted: oral, across all doses.
Excerpt: as §1, §2, §3

In data set [3] the test system is H3K27me3/Total Histone H3 ratio. The data set can be described thus: Phase 1 SAD/MAD study: target engagement (change from baseline in H3K27me3/Total Histone H3 ratio). As to conditions: healthy volunteers; across the entire dose range. Here is the method: as §2
A further data set deals with HBG mRNA. The data set can be described thus: Phase 1 MAD study: HBG mRNA induction. Here is the method: as §2
Safety Follow-up (SFU) samples were collected 7-10 days post 14-day treatment period.
(§4) Data in FIG. 1 and FIG. 2 are presented as geometric LS mean ratios (to placebo) with a 95% confidence interval. Mixed-effects model for repeated measures (MMRM) analysis was performed for Day 7 and Day 14 measurements. An analysis of covariance (ANCOVA) was utilized for SFU data. In FIG. 1 and FIG. 2, “PBO” is placebo.

The test system of a further data set is F-reticulocytes. The data set can be described thus: Phase 1 MAD study: F-reticulocytes. As to conditions: safety follow-up (SFU) visits 7-10 days post 14-day treatment; dosed at ≥6 mg. Here is the method:
as §2
Increases in F-cells and HbF protein are projected with longer treatment duration.
as §4

The next data set concerns fetal hemoglobin (HbF). Description: Phase 1 open-label multiple-dose study in subjects with sickle cell disease: HbF induction by HPLC. From the text:
(§5) This is a Phase 1 multicenter, open-label study evaluating the safety, tolerability, pharmacokinetics (PK), fetal hemoglobin (HbF) induction and biological activity of Compound 1 in subjects 18-65 years of age with sickle cell disease (SCD). This study comprises 2 parts and is being conducted in subjects 18-65 years of age with sickle cell disease (SCD) either taking hydroxyurea (HU) at a stable dose for at least the preceding 3 months, or not taking hydroxyurea (HU).
(§6) The study consists of two phases. In Part A, Cohort 1 received 6 mg of Compound 1 by mouth once daily for 4 weeks, Cohort 2 received 2 mg of Compound 1 by mouth once daily for 4 weeks, and Cohort 3 received 12 mg of Compound 1 by mouth once daily for 4 weeks. An additional cohort may receive up to and including 20 mg of Compound 1 by mouth once daily for 4 weeks depending on the Data Monitoring Committee [DMC] review. Additional cohorts (up to five total cohorts) may be added based on the safety and pharmacokinetic data observed in subjects from the prior and ongoing cohorts. Up to 10 subjects have been or will be enrolled in each treatment arm.
Part B is the extension study. Eligible subjects who consent to continue in the extension study continue on treatment at the same dose level selected in Part A for an additional 8 weeks. Subjects who decline to participate in the extension study are followed for an additional 2-3 weeks.
The primary endpoints of the study are to evaluate the safety and tolerability of Compound 1 as measured by the frequency of adverse events and to evaluate single and multiple-dose pharmacokinetics of Compound 1 in subjects with sickle cell disease. Secondary endpoints include evaluating the effect of Compound 1 on fetal hemoglobin induction in peripheral blood, as well as changes from baseline in reticulocytes, in subjects with sickle cell disease. Exploratory endpoints include biomarkers of hemolysis, target engagement, incidence of vaso-occlusive crises (VOCs), and quality of life (QOL) measurements.

Data set [4] in a line: Phase 1 open-label multiple-dose study in subjects with sickle cell disease: safety and tolerability. As to conditions: oral once daily.
Excerpt: as §5, §6
Part B is the extension study. […]
(§7) The primary endpoints of the study are to evaluate the safety and tolerability of Compound 1 as measured by the frequency of adverse events and to evaluate single and multiple-dose pharmacokinetics of Compound 1 in subjects with sickle cell disease. […]

For a further data set, the system named is red blood cells. Description: Phase 1 open-label study in subjects with sickle cell disease: hemolysis and anemia markers (RDW, reticulocytes, total hemoglobin). As to conditions: SCD Cohort 1, 6 mg once daily.
Excerpt: as §5, §6, §7

Where [5] appears, read: SAD 2 to 60 mg, MAD 2 to 30 mg QD 14-day oral dosing.

For `Cc1ncccc1-c1cc2c(n3cnnc13)NCc1c(F)ccc3c1[C@H](CO3)CO2` [Compound 1], in data set [1] (setting [5]), the SAEs or discontinuations result was “no SAEs or discontinuations” and the Treatment-related adverse events result is “mild (Grade 1 or 2)”. In data set [1] (SAD and MAD cohorts), the “Tolerability / safety signals” value is “generally well tolerated and no unexpected safety signals were detected”. Moreover, the PK profiles result in data set [2] is on record as “dose proportionality across all doses”. In addition, in data set [3], the Target engagement entry is on record as “Robust target engagement”. In addition, the “HBG mRNA induction dependence” value with HBG mRNA (MAD cohorts, FIG. 1) is “both time- and dose-dependent”. Also, the “placebo-adjusted increases from baseline in HBG mRNA” value in the data set on HBG mRNA (healthy volunteers, 6-30 mg MAD cohorts, QD 14 days oral) is listed as 2.4-6.2 fold. The “mean fold increase in F-reticulocytes” value with F-reticulocytes is recorded as 1.7-3.9 fold. In addition, the “response differences in HU versus non-HU treated subjects” value with fetal hemoglobin (HbF) (SCD Cohort 1, 6 mg once daily, Subjects 7 and 8) is “no apparent response differences”. For the same molecule, the HbF increase in the data set on fetal hemoglobin (HbF) (SCD Cohort 1, 6 mg orally once daily, Subjects 7 and 8 (with and without HU), day 84) is listed as 6.8%-9.5%. For the same molecule, the “HbF response across doses” value in the data set with fetal hemoglobin (HbF) (SCD Cohorts 1 and 2 (6 mg and 2 mg orally once daily)) is “dose-dependent, clinically relevant and consistent increase in HbF”. Further, the “absolute HbF increases from baseline” value in the data set with fetal hemoglobin (HbF) (SCD, a subject in the 12 mg dose cohort (Cohort 3), after 42 days of treatment) is “up to 10.0%”. Moreover, the Tolerability entry in data set [4] is recorded as “generally well tolerated”. Moreover, in the data set with red blood cells, the “absolute reticulocyte count and total hemoglobin” value was “reductions in reticulocytes and increases in total hemoglobin”. In the data set on red blood cells (Subjects 7 and 8), the “red cell distribution width (RDW)” value is recorded as “reductions in RDW”.
